Assay results: PMC7920489 (Pharmaceuticals, 2021)
Where two headings read alike, the source gives them in different places.

Key:
[1] = nude, mouse, in vivo, ip, 50 mg/kg
in vivo = conditions: nude, mouse, ip, 50 mg/kg

COc1cccc(-c2cc(=O)c3ccccc3o2)c1NC(=O)C(C)(C)c1cc(C(=O)Nc2ccc(N(CCCl)CCCl)cc2)ccc1N [AL530]
tmax [1]: 2.5 h | tmax (in vivo): 2 h
